Experiments:
[1] = system: Human immunodeficiency virus 1; assay: Resistance index, ratio of EC50 for HIV-1 harboring reverse transcriptase K103N mutant to EC50 for wild type HIV-1 NL4-3; format: functional
[2] = system: Human immunodeficiency virus 1; assay: Antiviral activity against HIV-1 harboring reverse transcriptase Y188L mutant infected in human MT4 cells assessed as inhibition of virus-induced cytopathic effect after 5 days by MTT assay; format: functional, organism-based; conditions: Human immunodeficiency virus 1, MT4, 120 h
[3] = system: Human immunodeficiency virus 1; assay: Resistance index, ratio of ID50 for recombinant HIV-1 His-tagged reverse transcriptase p66/p51 L100I mutant to ID50 for recombinant wild type HIV-1 reverse transcriptase His-tagged p66/p51
[4] = system: Human immunodeficiency virus type 1 reverse transcriptase (Human immunodeficiency virus 1), Q72547 [Y181I]
[5] = system: Human immunodeficiency virus 1; assay: Resistance index, ratio of ID50 for recombinant HIV-1 His-tagged reverse transcriptase p66/p51 K103N mutant to ID50 for recombinant wild type HIV-1 reverse transcriptase His-tagged p66/p51
[6] = system: Human immunodeficiency virus type 1 reverse transcriptase (Human immunodeficiency virus 1), Q72547 [K103N]
Description: Inhibition of recombinant HIV-1 His-tagged reverse transcriptase p66/p51 K103N mutant expressed in Escherichia coli assessed as reduction in [3H]dTTP incorporation using poly(rA)/oligo(dT) as template/primer after 20 mins by scintillation counting analysis

[7] = Cytotoxicity against human MT4 cells assessed as reduction in cell viability after 5 days by MTT assay; format: cell-based
[8] = biological target: Human immunodeficiency virus type 1 reverse transcriptase (Human immunodeficiency virus 1) (UniProt Q72547)
Description: Inhibition of recombinant wild type HIV-1 His-tagged reverse transcriptase p66/p51 expressed in Escherichia coli assessed as reduction in [3H]dTTP incorporation using poly(rA)/oligo(dT) as template/primer after 20 mins by scintillation counting analysis

[9] = system: Human immunodeficiency virus 1; assay: Antiviral activity against wild type HIV 1 NL4-3 infected in human MT4 cells assessed as inhibition of virus-induced cytopathic effect after 5 days by MTT assay; format: functional, organism-based; conditions: Human immunodeficiency virus 1, NL4-3, MT4, 120 h
[10] = system: Human immunodeficiency virus 1; assay: Antiviral activity against HIV-1 IRLL98 harboring reverse transcriptase M41L, D67N, Y181C, M184V, R211K, and T215Y mutants infected in human MT4 cells assessed as inhibition of virus-induced cytopathic effect after 5 days by MTT assay; format: functional, organism-based; conditions: Human immunodeficiency virus 1, IRLL98, MT4, 120 h
[11] = system: Human immunodeficiency virus type 1 reverse transcriptase (Human immunodeficiency virus 1), Q72547 [L100I]
[12] = system: Human immunodeficiency virus 1; assay: Antiviral activity against HIV-1 harboring reverse transcriptase K103N mutant infected in human MT4 cells assessed as inhibition of virus-induced cytopathic effect after 5 days by MTT assay; format: functional, organism-based; conditions: Human immunodeficiency virus 1, MT4, 120 h
[13] = system: Human immunodeficiency virus 1; assay: Antiviral activity against HIV 1 harboring reverse transcriptase Y181C mutant infected in human MT4 cells assessed as inhibition of virus-induced cytopathic effect after 5 days by MTT assay; format: functional, organism-based; conditions: Human immunodeficiency virus 1, MT4, 120 h
[14] = system: Human immunodeficiency virus 1; assay: Resistance index, ratio of EC50 for HIV-1 IRLL98 harboring reverse transcriptase M41L, D67N, Y181C, M184V, R211K, and T215Y mutants to EC50 for wild type HIV-1 NL4-3; format: functional
[15] = system: Human immunodeficiency virus 1; assay: Resistance index, ratio of ID50 for recombinant HIV-1 His-tagged reverse transcriptase p66/p51 Y181I mutant to ID50 for recombinant wild type HIV-1 reverse transcriptase His-tagged p66/p51
[16] = Therapeutic index, ratio of CC50 for human MT4 cells to EC50 for HIV-1 NL4-3 infected in human MT4 cells; format: toxicity, cell-based; conditions: read-out: Ratio CC50/EC50
[17] = system: Human immunodeficiency virus 1; assay: Resistance index, ratio of EC50 for HIV-1 harboring reverse transcriptase Y181C mutant to EC50 for wild type HIV-1 NL4-3; format: functional
[18] = system: Human immunodeficiency virus 1; assay: Antiviral activity against HIV-1 harboring reverse transcriptase K103N/Y181C double mutant infected in human MT4 cells assessed as inhibition of virus-induced cytopathic effect after 5 days by MTT assay; format: functional, organism-based; conditions: Human immunodeficiency virus 1, MT4, 120 h
[19] = system: Human immunodeficiency virus 1; assay: Resistance index, ratio of EC50 for HIV-1 harboring reverse transcriptase K103N/Y181C double mutant to EC50 for wild type HIV-1 NL4-3; format: functional
[20] = system: Human immunodeficiency virus 1; assay: Resistance index, ratio of EC50 for HIV-1 harboring reverse transcriptase Y188L mutant to EC50 for wild type HIV-1 NL4-3; format: functional

Row | SMILES | Ratio EC50 [1] | EC50 [2] [nM] | Ratio [3] | ID50 [4] [nM] | Ratio [5] | ID50 [6] [nM] | CC50 at 120 h [7] [nM] | ID50 [8] [nM] | EC50 [9] [nM] | EC50 [10] [nM] | ID50 [11] [nM] | EC50 [12] [nM] | EC50 [13] [nM] | Ratio EC50 [14] | Ratio [15] | selectivity ratio [16] | Ratio EC50 [17] | EC50 [18] [nM] | Ratio EC50 [19] | Ratio EC50 [20]
1 | Cc1c(C(C)c2c(F)cccc2F)nc(NC(C)C)[nH]c1=O (stereo unspecified) | 44 | > 10000 | 7 | 3520 | 11 | 400 | 200000 | 35 | 20 | 150 | 250 | 890 | 350 | 7 | 101 | 10000 | 17 |  |  | 
2 | Cc1c(C(C)c2c(F)cccc2Cl)nc(SC(C)C)[nH]c1=O (stereo unspecified) |  |  |  |  |  |  | > 15000 |  |  | 75 |  |  |  | 1875 |  | > 375000 |  | 270 | 6750 | 
3 | CCCN(C)c1nc(C(C)c2c(F)cccc2F)c(C)c(=O)[nH]1 (stereo unspecified) | 9 | 49 | 6 |  | 6 |  | > 78000 |  | 1.9 | 7 |  | 16 | 17 | 4 | 40 | > 41000 | 9 |  |  | 26
4 | Cc1cc(C#N)cc(C)c1Oc1nc(Nc2ccc(C#N)cc2)nc(N)c1Br [ETRAVIRINE] | 4 |  |  |  |  | 85 | 3500 | 6 | 0.5 |  |  | 2 | 9 |  |  | 7000 | 18 |  | 38 | 40
5 | CCCNc1nc(C(OC)c2c(F)cccc2F)c(C)c(=O)[nH]1 (stereo unspecified) | 6 | 3500 | 24 | 1700 | 5 | 220 | 81400 | 40 | 5 | 16 | 980 | 32 | 98 | 3 | 42 | 16300 | 20 |  |  | 700
6 | COC(c1nc(NC(C)C)[nH]c(=O)c1C)c1c(F)cccc1F (stereo unspecified) | 16 | 6600 | 19 | 1900 | 11 | 620 | > 81400 | 57 | 14 | 70 | 1100 | 230 | 140 | 5 | 33 | > 5810 | 10 |  |  | 471
7 | O=C1Nc2ccc(Cl)cc2[C@@](C#CC2CC2)(C(F)(F)F)O1 [EFAVIRENZ] |  |  |  |  |  |  | > 3000 |  |  | 630 |  | 390 | 44 |  |  |  |  | 400 |  | 
8 | CCC(C)Sc1nc(C(C)c2c(F)cccc2Cl)c(C)c(=O)[nH]1 (stereo unspecified) |  |  |  |  |  |  | > 1500 |  |  | 95 |  |  |  | 317 |  | > 5000 |  | 410 | 1367 | 
9 | COC(c1nc(SC2CCCC2)[nH]c(=O)c1C)c1c(F)cccc1F (stereo unspecified) | 97 | 3200 | 65 | 570 | 19 | 260 | 34300 | 14 | 29 | 840 | 910 | 2800 | 2700 | 29 | 41 |  | 93 |  |  | 110
10 | Cc1ccnc2c1NC(=O)c1cccnc1N2C1CC1 [NEVIRAPINE] |  | > 7000 |  | 33000 to 35000 |  |  | > 7000 |  |  |  | 8500 to 9000 |  |  |  |  |  |  | > 7000 |  | 
11 | CCC(C)Sc1nc(C(OC)c2c(F)cccc2F)c(C)c(=O)[nH]1 (stereo unspecified) | 178 | 2800 | 93 | 5400 | 500 | 1500 | 27200 | 3 | 9 | 240 | 280 | 1600 | 370 | 27 | 1800 | 3020 | 41 |  |  | 311
12 | COC(c1nc(SC(C)C)[nH]c(=O)c1C)c1c(F)cccc1F (stereo unspecified) | 65 | 2900 | 71 | 9100 | 16 | 130 | > 25000 | 8 | 17 | 520 | 570 | 1100 | 560 | 31 | 1140 | > 1470 | 33 |  |  | 171
13 | COC(c1nc(SC2CCCC2)[nH]c(=O)c1C)c1c(F)cccc1Cl (stereo unspecified) | 100 | 860 | 329 | 3800 | 21 | 150 | 36800 | 7 | 0.7 | 12 | 2300 | 70 | 160 | 17 | 543 | 52600 | 229 |  |  | 1229
